{"source": "ChEMBL document CHEMBL3600300", "about": "“Cytotoxic triterpene saponins from Cercodemas anceps” (Bioorg Med Chem Lett, 2015)", "type_in_all_cases": "functional, cell-based", "key": {"LNCaP": {"system": "LNCaP", "assay": "Cytotoxicity against human LNCAP cells after 48 hrs by SRB assay"}, "MCF7": {"system": "MCF7", "assay": "Cytotoxicity against human MCF7 cells after 48 hrs by SRB assay", "details": "MCF7, 48 h"}, "KB": {"system": "KB", "assay": "Cytotoxicity against human KB cells after 48 hrs by SRB assay"}, "HepG2": {"system": "HepG2", "assay": "Cytotoxicity against human HepG2 cells after 48 hrs by SRB assay", "details": "HepG2, 48 h"}, "SK-MEL-2": {"system": "SK-MEL-2", "assay": "Cytotoxicity against human SK-MEL-2 cells after 48 hrs by SRB assay", "details": "SK-MEL-2, 48 h"}}}
{"smiles": "CO[C@@H]1[C@@H](O)[C@H](O[C@@H]2[C@@H](O)[C@H](O[C@H]3[C@H](O)[C@@H](O[C@@H]4OC[C@@H](O)[C@H](O)[C@H]4O)[C@H](O[C@H]4[C@H](O[C@H]5CC[C@]6(C)C7=CC[C@]89C(=O)O[C@@](C)(CCCC(C)C)[C@H]8C(=O)C[C@@]9(C)[C@@H]7CC[C@H]6C5(C)C)OC[C@@H](OS(=O)(=O)O)[C@@H]4O)O[C@@H]3C)O[C@H](COS(=O)(=O)O)[C@H]2O)O[C@H](CO)[C@H]1O", "values": [{"measurement": "IC50", "setting": "LNCaP", "value": 170, "unit": "nM"}, {"measurement": "IC50", "setting": "MCF7", "value": 130, "unit": "nM"}, {"measurement": "IC50", "setting": "KB", "value": 30, "unit": "nM"}, {"measurement": "IC50", "setting": "HepG2", "value": 70, "unit": "nM"}, {"measurement": "IC50", "setting": "SK-MEL-2", "value": 110, "unit": "nM"}]}
{"smiles": "C=C(C)CCC[C@]1(C)OC(=O)[C@]23CC=C4[C@@H](CC[C@H]5C(C)(C)[C@@H](O[C@@H]6OC[C@@H](OS(=O)(=O)O)[C@H](O)[C@H]6O[C@@H]6O[C@H](C)[C@@H](O[C@@H]7O[C@H](COS(=O)(=O)O)[C@@H](O)[C@H](O[C@@H]8O[C@H](CO)[C@@H](O)[C@H](OC)[C@H]8O)[C@H]7O)[C@H](O)[C@H]6O[C@@H]6OC[C@@H](O)[C@H](O)[C@H]6O)CC[C@]45C)[C@]2(C)CC(=O)[C@@H]31", "values": [{"measurement": "IC50", "setting": "LNCaP", "value": 230, "unit": "nM"}, {"measurement": "IC50", "setting": "MCF7", "value": 200, "unit": "nM"}, {"measurement": "IC50", "setting": "KB", "value": 40, "unit": "nM"}, {"measurement": "IC50", "setting": "HepG2", "value": 70, "unit": "nM"}, {"measurement": "IC50", "setting": "SK-MEL-2", "value": 240, "unit": "nM"}]}
{"smiles": "CC(C)CCC[C@]1(C)OC(=O)[C@]23CC=C4[C@@H](CC[C@H]5C(C)(C)[C@@H](O[C@@H]6OC[C@@H](OS(=O)(=O)O)[C@H](O)[C@H]6O[C@H]6O[C@H](C)[C@H](O[C@@H]7O[C@H](COS(=O)(=O)O)[C@@H](O)[C@H](O)[C@H]7O)[C@H](O)[C@H]6O)CC[C@]45C)[C@]2(C)CC(=O)[C@@H]31", "values": [{"measurement": "IC50", "setting": "LNCaP", "value": 1190, "unit": "nM"}, {"measurement": "IC50", "setting": "MCF7", "value": 560, "unit": "nM"}, {"measurement": "IC50", "setting": "KB", "value": 250, "unit": "nM"}, {"measurement": "IC50", "setting": "HepG2", "value": 970, "unit": "nM"}, {"measurement": "IC50", "setting": "SK-MEL-2", "value": 1470, "unit": "nM"}]}
{"smiles": "C=C(C)CCC[C@]1(C)OC(=O)[C@]23CC=C4[C@@H](CC[C@H]5C(C)(C)[C@@H](O[C@@H]6OC[C@@H](OS(=O)(=O)O)[C@H](O)[C@H]6O[C@H]6O[C@H](C)[C@H](O[C@@H]7O[C@H](COS(=O)(=O)O)[C@@H](O)[C@H](O)[C@H]7O)[C@H](O)[C@H]6O)CC[C@]45C)[C@]2(C)CC(=O)[C@@H]31", "values": [{"measurement": "IC50", "setting": "LNCaP", "value": 1920, "unit": "nM"}, {"measurement": "IC50", "setting": "MCF7", "value": 1030, "unit": "nM"}, {"measurement": "IC50", "setting": "KB", "value": 320, "unit": "nM"}, {"measurement": "IC50", "setting": "HepG2", "value": 4690, "unit": "nM"}, {"measurement": "IC50", "setting": "SK-MEL-2", "value": 1250, "unit": "nM"}]}
{"smiles": "CC(C)CCC[C@]1(C)OC(=O)[C@]23CC=C4[C@@H](CC[C@H]5C(C)(C)[C@@H](O[C@@H]6OC[C@@H](OS(=O)(=O)O)[C@H](O)[C@H]6O[C@H]6O[C@H](C)[C@@H](O)[C@H](O)[C@H]6O)CC[C@]45C)[C@]2(C)CC(=O)[C@@H]31", "values": [{"measurement": "IC50", "setting": "LNCaP", "value": 2110, "unit": "nM"}, {"measurement": "IC50", "setting": "MCF7", "value": 1090, "unit": "nM"}, {"measurement": "IC50", "setting": "KB", "value": 480, "unit": "nM"}, {"measurement": "IC50", "setting": "HepG2", "value": 2050, "unit": "nM"}, {"measurement": "IC50", "setting": "SK-MEL-2", "value": 4090, "unit": "nM"}]}
{"smiles": "C=C(C)CCC[C@]1(C)OC(=O)[C@]23CC=C4[C@@H](CC[C@H]5C(C)(C)[C@@H](O[C@@H]6OC[C@@H](OS(=O)(=O)O)[C@H](O)[C@H]6O[C@H]6O[C@H](C)[C@@H](O)[C@H](O)[C@H]6O)CC[C@]45C)[C@]2(C)CC(=O)[C@@H]31", "values": [{"measurement": "IC50", "setting": "LNCaP", "value": 3300, "unit": "nM"}, {"measurement": "IC50", "setting": "MCF7", "value": 1330, "unit": "nM"}, {"measurement": "IC50", "setting": "KB", "value": 1370, "unit": "nM"}, {"measurement": "IC50", "setting": "HepG2", "value": 6080, "unit": "nM"}, {"measurement": "IC50", "setting": "SK-MEL-2", "value": 7360, "unit": "nM"}]}
{"smiles": "CO[C@@H]1[C@@H](O)[C@H](O[C@@H]2[C@@H](O)[C@H](O[C@H]3[C@H](O)[C@@H](O)[C@H](O[C@H]4[C@H](O[C@H]5CC[C@]6(C)[C@H]7CC[C@]89C(=O)O[C@@](C)(CCC=C(C)C)[C@H]8[C@@H](OC(C)=O)C[C@@]9(C)C7=CC[C@H]6C5(C)C)OC[C@@H](OS(=O)(=O)O)[C@@H]4O)O[C@@H]3C)OC[C@H]2O)O[C@H](CO)[C@H]1O", "values": [{"measurement": "IC50", "setting": "LNCaP", "value": 1190, "unit": "nM"}, {"measurement": "IC50", "setting": "MCF7", "value": 370, "unit": "nM"}, {"measurement": "IC50", "setting": "KB", "value": 110, "unit": "nM"}, {"measurement": "IC50", "setting": "HepG2", "value": 1160, "unit": "nM"}, {"measurement": "IC50", "setting": "SK-MEL-2", "value": 850, "unit": "nM"}]}
{"smiles": "Cc1c2ccncc2c(C)c2c1[nH]c1ccccc12", "note": "[ELLIPTECINE]", "values": [{"measurement": "IC50", "setting": "LNCaP", "value": 1990, "unit": "nM"}, {"measurement": "IC50", "setting": "MCF7", "value": 1950, "unit": "nM"}, {"measurement": "IC50", "setting": "KB", "value": 2070, "unit": "nM"}, {"measurement": "IC50", "setting": "HepG2", "value": 1710, "unit": "nM"}, {"measurement": "IC50", "setting": "SK-MEL-2", "value": 2150, "unit": "nM"}]}
